Results published in patent US20240199611A1, “ANTIBACTERIAL COMPOUNDS” (JANSSEN SCIENCES IRELAND UNLIMITED COMPANY, priority 2021, published 2024).
Read-outs that look alike come from different tables or passages of the source.

Columns and labels:
[1] = in vivo
[2] = tested on: Ca Ch; details: read-out: CVS Ca Ch IC50
[3] = Mitochondrial toxicity (Glu/Gal) assay; assay type: cell-based
Description: The compounds of the invention/examples may have advantages associated with in vitro potency, kill kinetics (i.e. bactericidal effect) in vitro, PK properties, food effect, safety/toxicity (including liver toxicity, coagulation, 5-LO oxygenase), metabolic stability, Ames II negativity, MNT negativity, aqueous based solubility (and ability to formulate) and/or cardiovascular effect e.g. on animals (e.g. anesthetized guinea pig). The data below that was generated/calculated may be obtained using standard methods/assays, for instance that are available in the literature or which may be performed by a supplier (e.g. Microsomal Stability Assay—Cyprotex, Mitochondrial toxicity (Glu/Gal) assay—Cyprotex, as well as literature CYP cocktail inhibition assays). In some instances, GSH was measured (reactive metabolites, glucuronidation) to observe if a dihydrodiol is observed by LCMS (fragmentation ions), which would correspond to a dihydroxylation on the core heterocycle.

[4] = tested on: Na Ch; experiment: CVS Na Ch
[5] = tested on: Mycobacterium tuberculosis strain EH4.0 expressing green-fluorescent protein (GFP); experiment: microbe, parasite or virus in culture; assay type: cell-based; details: read-out: pIC50 (converted)
[6] = assay type: physicochemical; details: 30 μM; for chemical stability (% by LCMS), DMSO: 0 h; for chemical stability (% by LCMS), ACN/H2O / chemical stability (% by LCMS), ACN/0.1N HCl: 48 h; for chemical stability (% by LCMS), ACN/0.1N HCl: pH 1.6
Procedure: Chemical Stability Testing
Preliminary Protocol • Add 3 μl of a 10 mM DMSO stock solution to 1 ml of the following solvents in a 1.5 ml HPLC vial. • DMSO (reference solution) • H2O/Acetonitril 1/1 (assay solution) • 0.1N HCl/Acetonitril 1/1 (assay solution) • Mix well, […] LCMS • Compare the chromatograms of the two assay solutions with the reference solution and report the additional peaks as degradation peaks

SMILES | melting point [°C] | IC50 ([5]; Test 1 (and/or Test 2)) [nM] | chemical stability (% by LCMS), DMSO [6] [%] | chemical stability (% by LCMS), ACN/H2O [6] [%] | chemical stability (% by LCMS), ACN/0.1N HCl [6] [%] | other results
CCc1nc2ccc(Cl)cn2c1C(=O)NCc1ccc(N2CCN(S(=O)(=O)C(F)(F)F)C=N2)cc1 [Compound 1] | 183.46 | – | – | – | – | bioavailability [1]: good bioavailability; IC50 [2]: > 10000 nM; Glu/Gal assay ratio (mitotoxicity) [3]: < 3
CCc1nc2ccc(Cl)cn2c1C(=O)NCc1ccc(N2CCN(S(=O)(=O)C(F)(F)F)C(OC)=N2)cc1 [Compound 6] | – | – | – | – | – | IC50 [4]: > 10000 nM; Glu/Gal assay ratio (mitotoxicity) [3]: < 3
COCc1nc2ccc(Cl)cn2c1C(=O)NCc1ccc(N2CCN(S(=O)(=O)C(F)(F)F)C=N2)cc1 [Compound 8] | 167.12 | – | – | – | – | IC50 [5]: 251 nM
CCc1nc2ccc(Cl)cn2c1C(=O)NCc1ccc(N2CCN(S(=O)(=O)C(F)(F)F)C=N2)c(F)c1 [Compound 9] | – | – | – | – | – | IC50 [4]: > 10000 nM
CCc1nc2ncc(Cl)cn2c1C(=O)NCc1ccc(N2CCN(S(=O)(=O)C(F)(F)F)C=N2)cc1 [Compound 13] | 215.87 | – | – | – | – | IC50 [4]: > 10000 nM
CCc1nc2ccc(Cl)cn2c1C(=O)NCc1ccc(N2CCN(S(=O)(=O)C(F)(F)F)C=N2)cc1F [Compound 16] | 158.1 | – | – | – | – | IC50 [4]: > 10000 nM
CCc1nc2ccc(Cl)cn2c1C(=O)NCc1ccc(N2CCN(S(C)(=O)=O)C=N2)cc1 [Compound 20] | 209.36 | – | – | – | – | IC50 [2]: > 10000 nM
CCc1nc2ccc(Cl)cn2c1C(=O)NCc1ccc(N2CCN(S(=O)(=O)C(F)(F)F)C=N2)c(OC)c1 [Compound 25] | 125.56 | 10 | – | – | – | –
CCc1nc2ccc(OC)cn2c1C(=O)NCc1ccc(N2CCN(S(=O)(=O)C(F)(F)F)C(OC)=N2)cc1 [Compound 36] | 142.03 | 3.98 | – | – | – | –
CCc1nc2ccc(COC)cn2c1C(=O)NCc1ccc(N2CCN(S(=O)(=O)C(F)(F)F)C=N2)cc1 [Compound 43] | 169.05 | 10 | – | – | – | –
CCc1nc2ncc(Cl)cn2c1C(=O)NCc1cc(F)c(N2CCN(S(=O)(=O)C(F)(F)F)C=N2)c(F)c1 [Compound 47] | 149.44 | 3.16 | – | – | – | –
CCc1nc2ccc(Cl)cn2c1C(=O)NCc1ccc(N2CCN(c3nccs3)C(OC)=N2)cc1 [Compound 54] | 233.23 | 11 | – | – | – | –
CCc1nc2c(F)cc(Cl)cn2c1C(=O)NCc1ccc(N2CCN(S(=O)(=O)C(F)(F)F)C(C3CC3)=N2)c(F)c1 [Compound 231] | – | 0.891 | 98 | 98 | 98 | –
CCC1=NN(c2ccc(CNC(=O)c3c(C(F)(F)F)nc4ccccn34)cc2F)CCN1S(=O)(=O)C(F)(F)F [Compound 233] | – | 1.07 | 99 | 99 | 99 | –
CCC1=NN(c2ccc(CNC(=O)c3c(CC)nc4ncc(C)cn34)cc2F)CCN1S(=O)(=O)C(F)(F)F [Compound 234] | – | 0.324 | 96 | 95 | 97 | –
CCC1=NN(c2ncc(CNC(=O)c3c(CC)nc4ncc(C)cn34)cc2F)CCN1S(=O)(=O)C(F)(F)F [Compound 235] | – | 6.31 | 99 | 99 | 98 | –
CCc1nc2c(F)cc(Cl)cn2c1C(=O)NCc1ccc(N2CCN(S(=O)(=O)C(F)(F)F)C(C(C)C)=N2)c(F)c1 [Compound 238] | – | 1.58 | 100 | 100 | 100 | –

SMILES | melting point [°C] | IC50 ([5]; Test 1 (and/or Test 2)) [nM] | chemical stability (% by LCMS), DMSO [6] [%] | chemical stability (% by LCMS), ACN/H2O [6] [%] | chemical stability (% by LCMS), ACN/0.1N HCl [6] [%] | other results
Cc1ccc2nc(C(F)F)c(C(=O)NCc3ccc(N4CCN(S(=O)(=O)C(F)(F)F)C(C(C)C)=N4)c(F)c3)n2c1 [Compound 240] | – | 0.603 | 100 | 100 | 100 | –
CCc1nc2cc(C)c(C)cn2c1C(=O)NCc1ccc(N2CCN(S(=O)(=O)C(F)(F)F)C(C(C)C)=N2)c(F)c1 [Compound 241] | – | 3.47 | 100 | 100 | 100 | –
CC(C)C1=NN(c2ccc(CNC(=O)c3c(C(F)(F)F)nc4ccccn34)cc2F)CCN1S(=O)(=O)C(F)(F)F [Compound 247] | – | 1.38 | 96 | 100 | 100 | –
CCc1nc2ncc(C)cn2c1C(=O)NCc1ccc(N2CCN(S(=O)(=O)C(F)(F)F)C(C(C)C)=N2)c(F)c1 [Compound 248] | – | 0.224 | 92 | 100 | 100 | –
Cc1cnc2nc(C(F)F)c(C(=O)NCc3ccc(N4CCN(S(=O)(=O)C(F)(F)F)C(C(C)C)=N4)c(F)c3)n2c1 [Compound 249] | – | 1.86 | – | – | – | –
CCc1nc2ncc(C)cn2c1C(=O)NCc1ccc(N2CCN(S(=O)(=O)C(F)(F)F)C(C)=N2)cc1 [Compound 250] | – | 1.58 | – | – | – | –
CCc1nc2ncc(C)cn2c1C(=O)NCc1ccc(N2CCN(S(=O)(=O)C(F)(F)F)C(C)=N2)c(F)c1 [Compound 251] | – | 0.437 | 100 | 100 | 100 | –
CC1=NN(c2ccc(CNC(=O)c3c(C(F)(F)F)nc4ccccn34)cc2F)CCN1S(=O)(=O)C(F)(F)F [Compound 252] | – | 1.2 | 99 | 99 | 99 | –
CC1=NN(c2ccc(CNC(=O)c3c(C(F)(F)F)nc4ccc(C)cn34)cc2F)CCN1S(=O)(=O)C(F)(F)F [Compound 253] | – | 1.86 | 100 | 100 | 100 | –
CC1=NN(c2ccc(CNC(=O)c3c(C(F)(F)F)nc4ncccn34)cc2F)CCN1S(=O)(=O)C(F)(F)F [Compound 254] | – | 53.7 | – | – | – | –
CCc1nc2ncc(C)cn2c1C(=O)NCc1cnc(N2CCN(S(=O)(=O)C(F)(F)F)C(C)=N2)c(F)c1 [Compound 255] | – | 6.17 | 100 | 100 | 98 | –
CC1=NN(c2ncc(CNC(=O)c3c(C(F)(F)F)nc4ccccn34)cc2F)CCN1S(=O)(=O)C(F)(F)F [Compound 256] | – | 18.6 | – | – | – | –
CC1=NN(c2ccc(CNC(=O)c3c(C(F)(F)F)nc4ncc(C)cn34)cc2F)CCN1S(=O)(=O)C(F)(F)F [Compound 257] | – | 6.03 | 99 | 99 | 99 | –
CCc1nc2ccc(C)cn2c1C(=O)NCc1ccc(N2CCN(S(=O)(=O)C(F)(F)F)C(C(=O)OC)=N2)cc1 [Compound 258] | – | 6.17 | 99 | 99 | 100 | –
CCc1nc2ccc(C)cn2c1C(=O)NCc1ccc(N2CCN(S(=O)(=O)C(F)(F)F)C(C(=O)N(C)C)=N2)cc1 [Compound 259] | – | – | 98 | 100 | 100 | IC50 [5]: 10.7 nM
CCc1nc2ccc(C)cn2c1C(=O)NCc1ccc(N2CCN(S(=O)(=O)C(F)(F)F)C(C(N)=O)=N2)cc1 [Compound 260] | – | 32.4 | 98 | 100 | 100 | –
